Measurements from article PMC5471521, “Novel selective β1-adrenoceptor antagonists for concomitant cardiovascular and respiratory disease” (The FASEB Journal, 2017).

Legend:
dopamine transporter = dopamine transporter (Homo sapiens, UniProt Q01959); test: Cerep radioligand-binding assay
Description: (§1) […]; Ki (inhibition constant) was calculated by using the Cheng-Prusoff equation from the mean of duplicate determinations in cell-based receptor radioligand-binding assays. Cerep in vitro pharmacology profiling service was used (see the Supplemental Data for a list of the assays used).

[1] = biological target: noradrenaline transporter (Homo sapiens, UniProt P23975); test: Cerep radioligand-binding assay
Description: as §1

CYP2A6 = biological target: T1, CYP2A6 (Homo sapiens, UniProt P11509); test: P450 in vitro clearance, recombinant Supersomes; assay type: in vitro ADME; conditions: 2 μM, hydrochloride salts used
T1 construct: purchased BD Biosciences
Description: (§2) NDD-713.HCl and -825.HCl (2 μM) and cytochrome P450 (P450) reference substrates (see Supplemental Data for full details) were incubated (37°C) with selected recombinant human P450 isoforms (CYP1A2, CYP2A6, CYP2B6, CYP2C8, CYP2C9, CYP2C19, CYP2D6 CYP2E1, and CYP3A4) in heterologously expressed P450 Supersomes (BD Biosciences) that were suspended in […] Tris-HCl buffer (pH 7.4; for CYP2C9) or 100 mM phosphate buffer (pH 7.4; for the other isoforms) at final P450 concentrations of 85 pmol/ml. Reactions were initiated by additions of an NADPH-regenerating system and quenched at time points over 60 min (reference probes) or 120 min (test compounds) by acetonitrile. Quenched samples were centrifuged and supernatants were collected. NDD-713, -825, and probe metabolites were determined by UPLC-MS relative to calibration standards prepared in quenched matrix, and %substrate that remained was calculated relative to the initial sample concentration. The %substrate that remained vs. time was fitted to exponential decay functions to determine the pseudo first-order rate constant (k/min) for substrate depletion. These were normalized to P450 concentrations (pmol/ml) to obtain in vitro CLint values: CLint, in vitro (μl/min/pmol P450) = [k (min^−1)/P450 concentration […]] × 1000. Studies were carried out by CDCO.

5-HT2B = 5-HT2B (Homo sapiens, UniProt P41595); test: Cerep receptor radioligand-binding assay; conditions: concentration-response, Cheng-Prusoff
Description: as §1

CYP2E1 = biological target: T2, CYP2E1 (Homo sapiens, UniProt P05181); test: P450 in vitro clearance, recombinant Supersomes; assay type: in vitro ADME; conditions: 2 μM, hydrochloride salts used; one value printed for CYP2D6 and CYP2E1
T2 construct: purchased BD Biosciences
Description: as §2

CYP2D6 = CYP2D6 (Homo sapiens, UniProt P10635); test: P450 in vitro clearance, recombinant Supersomes; assay type: in vitro ADME; conditions: 2 μM, hydrochloride salts used; one value printed for CYP2D6 and CYP2E1
Description: as §2

[2] = concentration-response, Cheng-Prusoff

Sequence of noradrenaline transporter (P23975 whole entry): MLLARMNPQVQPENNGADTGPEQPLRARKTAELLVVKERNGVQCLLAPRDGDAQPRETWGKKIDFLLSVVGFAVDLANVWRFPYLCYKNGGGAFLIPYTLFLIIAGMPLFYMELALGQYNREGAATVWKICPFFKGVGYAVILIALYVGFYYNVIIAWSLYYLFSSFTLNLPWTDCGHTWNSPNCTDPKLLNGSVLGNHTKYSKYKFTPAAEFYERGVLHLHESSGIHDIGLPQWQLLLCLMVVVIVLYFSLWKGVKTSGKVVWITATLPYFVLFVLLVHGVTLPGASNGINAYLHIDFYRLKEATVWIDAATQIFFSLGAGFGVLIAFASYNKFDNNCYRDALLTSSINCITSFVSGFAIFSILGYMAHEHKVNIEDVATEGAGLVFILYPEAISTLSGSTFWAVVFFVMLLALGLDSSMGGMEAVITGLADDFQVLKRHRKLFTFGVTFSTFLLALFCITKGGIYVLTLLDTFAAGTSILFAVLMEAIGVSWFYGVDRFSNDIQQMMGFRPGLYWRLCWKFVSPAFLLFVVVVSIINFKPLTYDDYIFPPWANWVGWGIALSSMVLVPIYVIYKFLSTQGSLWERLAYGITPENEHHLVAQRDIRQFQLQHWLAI
Sequence of dopamine transporter (Q01959 whole entry): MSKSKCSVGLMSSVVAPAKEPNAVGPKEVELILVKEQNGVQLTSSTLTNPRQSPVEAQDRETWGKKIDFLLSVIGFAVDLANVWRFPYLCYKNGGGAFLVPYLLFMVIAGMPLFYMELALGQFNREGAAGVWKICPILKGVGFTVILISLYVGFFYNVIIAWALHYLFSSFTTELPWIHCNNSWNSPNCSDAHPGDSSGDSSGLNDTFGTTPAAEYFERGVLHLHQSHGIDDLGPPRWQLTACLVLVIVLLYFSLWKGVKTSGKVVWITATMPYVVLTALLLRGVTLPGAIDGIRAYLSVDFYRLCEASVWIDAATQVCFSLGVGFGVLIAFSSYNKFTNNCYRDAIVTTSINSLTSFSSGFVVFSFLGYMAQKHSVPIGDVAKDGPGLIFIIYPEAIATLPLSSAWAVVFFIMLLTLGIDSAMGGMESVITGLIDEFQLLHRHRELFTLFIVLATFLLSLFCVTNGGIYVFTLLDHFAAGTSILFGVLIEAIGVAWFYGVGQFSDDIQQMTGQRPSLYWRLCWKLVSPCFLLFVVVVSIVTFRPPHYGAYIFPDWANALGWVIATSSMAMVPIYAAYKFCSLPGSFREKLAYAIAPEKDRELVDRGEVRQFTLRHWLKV
T2 sequence (P05181 whole entry): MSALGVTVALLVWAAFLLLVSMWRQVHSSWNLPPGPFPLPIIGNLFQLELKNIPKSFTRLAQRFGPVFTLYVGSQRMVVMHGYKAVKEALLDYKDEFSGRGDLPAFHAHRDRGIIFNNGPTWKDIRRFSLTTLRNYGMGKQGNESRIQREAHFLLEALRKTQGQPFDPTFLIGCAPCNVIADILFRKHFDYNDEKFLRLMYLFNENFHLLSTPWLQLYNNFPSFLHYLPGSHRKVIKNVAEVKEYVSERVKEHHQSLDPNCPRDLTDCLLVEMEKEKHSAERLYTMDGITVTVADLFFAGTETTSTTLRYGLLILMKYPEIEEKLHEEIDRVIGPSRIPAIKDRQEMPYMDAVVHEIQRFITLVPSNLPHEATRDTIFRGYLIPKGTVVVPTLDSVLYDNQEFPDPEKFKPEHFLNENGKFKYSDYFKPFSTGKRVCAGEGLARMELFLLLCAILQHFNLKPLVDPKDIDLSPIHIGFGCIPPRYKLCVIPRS
T1 sequence (P11509 whole entry): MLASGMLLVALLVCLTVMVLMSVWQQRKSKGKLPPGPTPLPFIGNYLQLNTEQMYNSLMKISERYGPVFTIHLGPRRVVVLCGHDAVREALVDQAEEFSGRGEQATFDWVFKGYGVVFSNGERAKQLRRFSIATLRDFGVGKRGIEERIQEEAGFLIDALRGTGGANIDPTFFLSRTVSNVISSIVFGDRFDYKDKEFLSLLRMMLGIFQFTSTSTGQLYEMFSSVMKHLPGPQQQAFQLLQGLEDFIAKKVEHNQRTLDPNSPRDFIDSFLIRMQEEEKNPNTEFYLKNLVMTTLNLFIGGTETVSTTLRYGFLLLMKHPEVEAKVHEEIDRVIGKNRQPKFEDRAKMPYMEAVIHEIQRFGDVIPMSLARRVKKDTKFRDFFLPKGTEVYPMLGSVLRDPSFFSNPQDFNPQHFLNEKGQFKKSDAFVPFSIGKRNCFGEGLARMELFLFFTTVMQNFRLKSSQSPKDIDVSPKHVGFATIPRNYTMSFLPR
Sequence of CYP2D6 (P10635 whole entry): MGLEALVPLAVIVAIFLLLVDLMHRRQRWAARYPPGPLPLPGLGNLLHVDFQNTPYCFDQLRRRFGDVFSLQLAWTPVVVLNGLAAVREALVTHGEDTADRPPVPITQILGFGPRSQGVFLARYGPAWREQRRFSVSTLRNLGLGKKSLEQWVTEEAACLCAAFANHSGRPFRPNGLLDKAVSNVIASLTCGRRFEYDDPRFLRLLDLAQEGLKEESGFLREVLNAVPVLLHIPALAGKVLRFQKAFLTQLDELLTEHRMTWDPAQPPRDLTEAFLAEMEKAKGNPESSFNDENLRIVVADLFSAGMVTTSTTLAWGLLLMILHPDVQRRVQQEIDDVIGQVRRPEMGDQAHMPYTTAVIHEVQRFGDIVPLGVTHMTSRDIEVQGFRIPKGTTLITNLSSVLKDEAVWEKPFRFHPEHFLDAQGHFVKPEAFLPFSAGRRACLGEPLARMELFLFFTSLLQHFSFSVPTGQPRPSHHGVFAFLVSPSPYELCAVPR
Sequence of 5-HT2B (P41595 whole entry): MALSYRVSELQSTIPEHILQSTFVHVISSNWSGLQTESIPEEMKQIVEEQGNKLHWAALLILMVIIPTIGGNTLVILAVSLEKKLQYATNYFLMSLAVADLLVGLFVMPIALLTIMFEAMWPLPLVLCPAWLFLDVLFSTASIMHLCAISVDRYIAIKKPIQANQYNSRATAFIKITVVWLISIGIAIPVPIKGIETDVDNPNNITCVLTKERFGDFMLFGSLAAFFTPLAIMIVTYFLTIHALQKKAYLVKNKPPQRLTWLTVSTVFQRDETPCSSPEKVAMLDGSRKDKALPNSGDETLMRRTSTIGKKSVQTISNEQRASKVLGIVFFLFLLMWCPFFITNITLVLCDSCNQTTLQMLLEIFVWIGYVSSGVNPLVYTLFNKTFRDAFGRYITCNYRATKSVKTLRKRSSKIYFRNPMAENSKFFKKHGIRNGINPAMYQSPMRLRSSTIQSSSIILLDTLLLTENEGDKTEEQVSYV

| Structure (SMILES) | β1-AR vs. dopamine transporter selectivity (dopamine transporter) [fold] | Ki (dopamine transporter; [2]) [nM] | β1-AR vs. noradrenaline transporter selectivity [1] [fold] | Ki [1, 2] [nM] | P450 in vitro clearance CLint, CYP2A6 (CYP2A6) [μl/min/pmol P450] | Ki (5-HT2B) [µM] | P450 in vitro clearance CLint, CYP2E1 (CYP2E1) [μl/min/pmol P450] | P450 in vitro clearance CLint, CYP2D6 (CYP2D6) [μl/min/pmol P450] |
| --- | --- | --- | --- | --- | --- | --- | --- | --- |
| NC(=O)c1ccc(OCCNC[C@H](O)COc2ccc3c(c2)OC[C@@H](COCC2CC2)O3)cc1 [NDD-713] | 53 | 800 | 185 | 2800 | 0.02 | > 10 | – | – |
| O=C1NCc2cc(OCCNC[C@H](O)COc3ccc4c(c3)OC[C@@H](COCC3CC3)O4)ccc21 [NDD-825] | – | – | – | – | – | – | 0.02 | 0.02 |
